Tested on: mutant AR-YFP
Test: YFP fluorescence in reporter cell nuclei at saturating target hormone
Format: cell-based
Conditions: absence of urine
Description: For example, YFP fluorescence measured in the cell nuclei of urine-treated reporter cells represents both the effects of target hormone-bound nuclear-translocated mutant AR-YFP, and also the independent effects of urine on the fluorescence properties of YFP. […] Because the effect varies among samples, two aliquots of each sample are required. […] A second sample aliquot is assayed using the methods of the invention. The correction factor is used to subtract the percentage increase from the YFP fluorescence signal measurement of the second aliquot. The corrected YFP fluorescence of the sample then is used to extrapolate the target hormone levels from a standard curve.

For `C[C@]12CC[C@H]3[C@@H](CCC4=CC(=O)CC[C@@]43C)[C@@H]1CC[C@@H]2O` [testosterone], the “saturating level (YFP fluorescence in nuclei reaches a maximum)” value was “about 10^−7 M”.
